± gives the expanded uncertainty stated by the source.
Columns and labels:
[1] = Crystal; DSC
[2] = Molar enthalpy of transition or fusion; details: Crystal; DSC

Triple point temperature [1]: 409.5 ± 1 K
Molar enthalpy of transition or fusion [2]: 5.69 ± 0.167 kcal/mol
SMILES: CC(=O)c1c(C)c([N+](=O)[O-])c(C(C)(C)C)c([N+](=O)[O-])c1C [3',5'-dinitro-2',6'-dimethyl-4'-tert-butylacetophenone]
